Legend:
[1] = system: An. gambiae early 4th instar larvae; test: Larval mosquito movement assay (Daniovision-Ethovision); assay type: in vivo, Anopheles gambiae
Protocol: Next, the agonist activity of the VUAA compound class was tested to establish the involvement of AgORs in mediating larval ortho and klinokinesis in response to a series of semiochemicals using larval-stage An. gambiae mosquitoes. Mosquito larvae are aquatic, thus compounds can be delivered to individual early 4th instar larvae regardless of volatility. The assay currently utilizes 6-well plates and the Daniovision-Ethovision platform (Noldus Inc.) to simultaneously record and analyze 6 larvae, thereby providing modest rates of throughput and a high degree of reproducibility. In these assays, larval movements are automatically quantified over 5-minute period and control larvae consistently move the same number of times in the presence or absence of 0.1% DMSO (p=0.80, n=31) (FIGS. 42-43). Furthermore, the effects of the widely-used synthetic insect repellent N, N-diethyl-meta-toluamide (DEET) was tested and DEET was also observed to increase larval movements at and above a threshold concentration of 5×10^−4M (p=0.013, n=27) (FIGS. 42-43).

HvOR2 = test: Whole-cell patch clamp, HEK cells transiently expressing HvOR2; assay type: cell-based, Heliothis virescens; details: HvOR2 transiently transfected HEK cells
Excerpt: (§1) For transient transfections, ORs were cloned into pCl (Promega) and transfected into Flp-In™ T-REx™293 cell lines (Invitrogen) with Fu GENE6 (Roche). For the creation of stable cell lines, a cell culture expression vector capable of expressing Orco in conjunction with a conventional OR, pcDNA5/FRT/TO (Invitrogen) was modified to create two individual expression cassettes each under the control of a separate CMV/Tet02 promoter and a BGH poly-adenylation signal. Cells (as above) were transfected with the modified pcDNA5 plasmid along with POG44 (a Flp recombinase expression plasmid) to facilitate site-specific recombination. Stable cell lines were selected using Hygromycin B (Invitrogen). Cells were maintained in DMEM (Invitrogen) supplemented with 10% Tetracycline-free FBS (HyClone) and 15 ng/ml Blasticidin. […] Baseline readings were taken for 20 s before automated addition of compound previously diluted in DMSO and assay buffer. […]
(§2) Currents from OR-expressing HEK293 cells were amplified with an Axopatch 200b Amplifier (Axon Instruments) and digitized through a Digidata 1322A (Axon Instruments). Electrophysiological data was recorded and analyzed using pCLAMP 10 (Axon Instruments). […]

DmORco = biological target: T1, DmORco (Drosophila melanogaster, UniProt Q9VNB5); test: Whole-cell patch clamp, HEK cells transiently expressing DmORco; assay type: cell-based; details: DmORco transiently transfected HEK cells
T1 construct: expressed in transfected cells; host or cells: Flp-In T-REx 293 (HEK), transient, pCI vector, GFP co-transfected as a separate marker
T1 sequence (Q9VNB5 1-486): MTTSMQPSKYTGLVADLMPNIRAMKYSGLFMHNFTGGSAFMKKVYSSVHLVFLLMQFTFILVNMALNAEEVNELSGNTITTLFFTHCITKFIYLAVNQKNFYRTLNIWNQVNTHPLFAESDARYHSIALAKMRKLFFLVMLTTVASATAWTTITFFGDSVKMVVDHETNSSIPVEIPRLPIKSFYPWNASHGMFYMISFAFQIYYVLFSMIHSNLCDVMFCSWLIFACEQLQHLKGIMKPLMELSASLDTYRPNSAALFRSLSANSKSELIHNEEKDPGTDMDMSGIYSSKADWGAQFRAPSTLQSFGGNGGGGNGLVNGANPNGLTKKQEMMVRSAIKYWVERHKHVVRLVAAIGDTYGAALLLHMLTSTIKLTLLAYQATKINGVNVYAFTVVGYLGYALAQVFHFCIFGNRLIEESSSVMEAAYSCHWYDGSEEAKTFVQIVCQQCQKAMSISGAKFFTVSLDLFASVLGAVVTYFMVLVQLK
Excerpt: as §1, §2

CCc1ccc(NC(=O)CSc2nnc(-c3cccnc3)n2CC)cc1 [VUAA1, 2-((4-ethyl-5-(pyridin-3-yl)-4H-1,2,4-triazol-3-yl)thio)-N-(4-ethylphenyl)acetamide]
larval movements at higher concentration ([1]; 5×10^−5M): larval movements were observed to decrease | larval response in AgOrco siRNA-treated larvae ([1]; AgOrco siRNAs injected 48 h before, vs buffer-injected control): no longer responsive | increase over the response threshold of DEET ([1]; in vivo): 5 orders of magnitude | threshold concentration for increased larval movement ([1]; movements over 5-minute period): 5 nM | whole-cell current response (HvOR2): robust inward currents | whole-cell current response (DmORco): robust inward currents

Source: patent publication US11484032B2, “Compositions for inhibition of insect sensing” (Vanderbilt University, priority 2011, dated 2022)
